Test results published in patent US12391946B2, “Use of a Janus kinase inhibitor and a telomerase inhibitor for the treatment of myeloproliferative neoplasms” (priority 2019, dated 2025).
Read-outs that look alike come from different tables or passages of the source.

Experiments:
Format in all cases: cell-based, human
CB CD34+ cells = test: In vitro treatment of CB CD34+ cells with various doses of Rux; conditions: various doses of Rux (50-500 nM)
Protocol: (§1) Treatment of MF and normal CD34^+ cells with doses of Rux and Imetelstat alone and in combination. […] For simultaneous combination treatment, CD34^+ cells were exposed to Rux and imetelstat for 3 days and were washed. Cells were then exposed to imetelstat again for additional 4 days or 11 days. For sequential combination treatment, CD34^+ cells were incubated in the presence of Rux alone for 3 days, followed by imetelstat alone for 7 or 14 days. For the three treatment strategies containing imetelstat, cells were dosed in total three times with imetelstat. Three days after Rux alone treatment and 7 or 14 days after each treatment with imetelstat, cells were enumerated and stained with CD34, a lineage cocktail, and CD15 mAbs and analyzed flow cytometrically. The absolute numbers of Lin^− CD34^+ (phenotypically defined HSC/HPC) and CD15^+CD34^− (myeloid) cells generated in the cultures were calculated by multiplying the total viable cell numbers by the percentage of CD34^+Lin^− and CD15^+CD34^− cells. In addition, parallel cultures to which MM or vehicle alone was added were performed.

MF splenic CD34+ cells [1] = test: In vitro treatment of MF splenic CD34+ cells with various doses of Rux; conditions: for IC50: Homo sapiens, concentration of Rux achieving 50% inhibition
Protocol: as §1

MF splenic CD34+ cells [2] = test: In vitro treatment of MF splenic CD34+ cells with Rux and imetelstat alone and in combination (flow cytometry, HPC assays); conditions: Rux alone 50 nM 3 days
Protocol: as §1, with “In addition, parallel cultures to which MM or vehicle alone was added were performed.” left out
HPC assays. A fraction of cells harvested from the above cultures were also analyzed in methylcellulose to which a cytokine cocktail was added according to the manufacturer's instructions (StemCell Technologies). […] Individual CFU-GM colonies (20-38 colonies/treatment group/patient) were plucked and analyzed for the presence of JAK2V617F using a nested allele-specific PCR. […]

- IC50 (MF splenic CD34+ cells [1]; CFU-GM, MF CD34+ cells, read-out: 50% inhibition of CFU-GM formation): 150 nM
SMILES: N#CC[C@H](C1CCCC1)n1cc(-c2ncnc3[nH]ccc23)cn1 [Rux, (3R)-3-Cyclopentyl-3-[4-(7H-pyrrolo[2,3-d]pyrimidin-4-yl)pyrazol-1-yl]propanenitrile]
- number of CB CD34+ cells (CB CD34+ cells): decreased only to a limited degree
- IC50 (MF splenic CD34+ cells [1]; CD34+ cell, read-out: 50% inhibition of MF CD34+ cell proliferation): 150 nM
- absolute number of MF splenic CD34+ cells (MF splenic CD34+ cells [1]; various doses of Rux (50-500 nM)): decreased in a dose dependent fashion
- number of mature myeloid cells generated in cultures of splenic MF CD34+ cells (MF splenic CD34+ cells [2]; P=0.001): reduced
- numbers of assayable HPCs (CFU-GM+BFU-E+CFU-GEMM) generated in cultures of splenic MF CD34+ cells (MF splenic CD34+ cells [2]; P=9.69E-06): reduced
